Test results reported in PMC10961089, “Epidermal growth factor receptor inhibition potentiates chemotherapeutics‐mediated sensitization of metastatic breast cancer stem cells” (Cancer Reports, 2024).

Columns and labels:
[1] = test system: human CD44, ALDH1A1, Fibronectin, N‐Cadherin, Vimentin in tumor tissue; test: qRT-PCR of human CSC/EMT genes in tumor tissues; format: in vivo, C57BL/6 mice
Experimental: Additionally, total RNA was isolated from tumor tissues and utilized for cDNA synthesis (Thermo Scientific, Massachusetts, USA). To determine the transcriptional regulation of expression of EMT genes in tumor tissues subjected to various treatment regimes, quantitative real‐time PCR (qRT‐PCR) analysis was performed as described previously[28] using human gene‐specific forward and reverse primers of EMT genes. Amplification of Eukaryotic 18S rRNA served as an internal control and was utilized to calculate the fold change in expression.[29]
Animal studies have been carried out with the prior approval of the Institutional Animal Ethics Committee (IICT/IAEC/025/2023). C57BL/6 female mice of age 6–8 weeks (N = 35) were initially immunosuppressed with cyclophosphamide (50 mg/kg of body weight, i.p) on alternate days for 2 weeks. For generating a preclinical orthotopic xenograft tumor model, 2 × 10^6 GFP expressing sorted stable CD24^+‐breast cancer cells and CD24^−/CD44^+‐breast CSCs were orthotopically xeno‐transplanted subcutaneously at the fourth mammary fat pad of immune‐suppressed mice (n = 5/group). Subsequently, intratumoral administration of Doxorubicin at a low dose (2.5 mg/kg of body weight), high dose (10 mg/kg of body weight), and/or combinatorial treatment of the potent EGFR inhibitor, compound 1e (50 mg/kg of body weight) or the commercial EGFR inhibitor, PD153035 (50 mg/kg of body weight) with a low dose of doxorubicin was performed to the palpable tumors of breast CSCs at day‐3 post‐transplantation.

MDA‐MB‐231 cells = test: Apoptosis assay, Hoechst 33342 staining; format: cell-based, human; conditions: MDA-MB-231, combinatorial treatment with doxorubicin, 48 h, vs other treatment groups
Experimental: MDA‐MB‐231 cells were seeded at a density of 3 × 10^4 cells/well and cultured on a coverslip for 24 h at 37°C followed by 12 h serum starvation in 6‐well plates. The cells were treated with Doxorubicin (0.01 and 0.1 μM) in the absence or presence of compounds—1c, 1e, 1g, 1h, 1j, and 1k and incubated for 48 h. Post‐treatment, the cells were fixed using 4% Paraformaldehyde and stained with Hoechst 33342 dye (2 mg/mL; Invitrogen, USA) for 30 min. Apoptotic cells were identified by visualizing the fragmentation and condensation of nuclei using a confocal microscope (Olympus, USA).[30]

[2] = test system: BAX, BCL‐2, cytochrome‐C in MDA‐MB‐231 cells; test: Immunoblot analysis of apoptotic markers; format: cell-based, human; conditions: MDA-MB-231, doxorubicin 0.01 μM + compound 5 μM
Experimental: MDA‐MB‐231 cells were subjected to the treatment of doxorubicin (0.01 μM) in the absence/presence of the selected potent compounds—1c, 1e, 1g, 1h, 1j, and 1k at 5 μM concentration or a standard EGFR inhibitor, PD153035 (10 μM) for 48 h. Separately, TNBC cells—MDA‐MB‐231 were also treated with doxorubicin (0.01 and/or 0.1 μM) in the absence/presence of potent EGFR inhibitor/compound, 1e at 5 μM concentration or a standard EGFR inhibitor, PD153035 (10 μM) for 48 h. Cells were then lysed to isolate the total protein and subjected to SDS‐PAGE, transferred onto a poly (vinylidene difluoride) membrane, probing with primary antibodies (Table ST2) against apoptotic markers—BAX, BCL‐2, cytochrome‐C, and β‐actin followed by incubation with horseradish peroxidase‐conjugated secondary antibodies (CST, Waltham, MA, USA) as described previously.[6] Visualization was performed using G: Box (Syngene, Cambridge, UK).

[3] = test system: CD24^+‐breast cancer cells sorted from MDA‐MB‐231; test: MTT assay in sorted breast cancer cells; format: cell-based, human; conditions: doxorubicin 0.01 μM + 1e 5 μM vs doxorubicin 0.01 μM alone
Experimental: To evaluate the cytotoxicity profile of the potential EGFR inhibitors (compounds) against TNBC cell lines—MDA‐MB‐231, MDA‐MB‐468, and control cell line HEK293, cells were seeded at a cell density of 5 × 10^3 cells/well in complete medium onto 96‐well plates. Here, the non‐tumoral human embryonic kidney (HEK293) epithelial cells have been utilized as a control cell line to compare the IC50 values of the compounds between cancerous and non‐cancerous cell lines with a big therapeutic window. The use of HEK293 cells as compared to other non‐cancerous cell lines are easy to maintain in culture and the results obtained from HEK293 are highly reproducible and consistent.[27] Briefly, the cells were incubated at 37°C for 12 h to attain morphology. After 12 h, cells were serum starved by replacing the complete media with media containing 2% FBS to synchronize the cells. […] All the experiments were performed thrice and the IC50 values of the compounds and Doxorubicin were calculated using GraphPad Prism software version 9 (San Diego, CA, USA). Similarly, the percent inhibition of the sorted cell populations by chemotherapeutic drug, doxorubicin in the absence/presence of potent compound 1e or standard EGFR inhibitor, PD153035 was evaluated utilizing GraphPad Prism Version 9 (San Diego, CA, USA).

For `c1cncc(C(c2c[nH]c3ccccc23)c2c[nH]c3ccccc23)c1` [1e], the “expression level of human CD44 in tumor tissue” value ([1]; with doxorubicin low dose vs low dose doxorubicin alone) was “significantly decreased”, the “expression of human mesenchymal genes ALDH1A1, Fibronectin, N‐Cadherin, Vimentin” value ([1]; with low dose of doxorubicin, CSC xenograft) was “significantly decreased” and the “doxorubicin‐induced nuclear fragmentation (apoptosis)” value (MDA‐MB‐231 cells) was “markedly increased”. The BAX protein level ([2]; 48 h) was “elevation”, the BAX/BCL2 ratio ([2]; 48 h) was “elevation” and the BCL2 levels ([2]; 48 h) was “marked decrease”. For the same compound, the “doxorubicin‐induced expression of Cyt‐C” value ([2]; vs the other compounds) was “comparatively higher levels” and the “increase of percent inhibition of cell proliferation versus doxorubicin alone” value [3] was 1.8 folds.
